Columns and labels:
Type in all cases: binding, mouse
[1] = molecular target: monoclonal antibody 1A5.5; experiment: Indirect competitive enzyme immunoassay, monoclonal antibody 1A5.5; settings: for I50 (half-maximal inhibition): MAb 1A5.5, coating antigen H
Excerpt: (§1) An indirect enzyme immunoassay is used to screen for the production of anti-imidazolinone anti-bodies in the serum of the immunized mice and in cell fusion cultures. The method used is essentially the same as the method described by Voller, et al (Manual of Clinical Immunology, eds. N. Rose Friedman, H., pp. 506-512, 1976). For the indirect enzyme immunoassays, an antigen is adsorbed onto polystyrene flat bottom wells in 0.1M Na2CO3 buffer pH 9.6. Excess unbound material is washed away with buffer (PBS, containing 0.01M NaH2PO4—Na2HPO4 pH 7.6 with 0.05% TWEEN® 20 (a polyoxyethyene sorbitan monolaurate surpactantor Atlas chemical industries and 0.02% NaN3). A 0.05% gelatin solution prepared in PBS is used to block the sites unoccupied by the antigen to prevent non-specific binding of reagents. Antibody from serum or culture are added into the wells for binding to the bound antigen. The wells are washed and the amount of bound anitbody is determined by adding alkaline phosphatase-conjugated goat anti-mouse IgG (Boehringer) to the wells followed by the addition of a p-nitrophenyl phosphate solution for color development. The color intensity is determined spectrophotometrically and is used to determine the titers.
(§2) The bound antigen and imidazolinone compound compete for the antibody molecules. The wells are then washed and the color is developed as described above. In this assay, the color is inversely proportional to the amount of imidazolinone compound. In practice, standard curves are generated with known amounts of an imidazolinone compound and amounts present in test samples are calculated by interpolation.
(§3) Indirect competitive enzyme immunoassays for several imidazolinone compounds, using various monoclonal antibodies and antigens, are conducted according to the procedure described in Example 9. Antigens G and H are as described in Example 10 and Antigen I is shown below.

[2] = molecular target: monoclonal antibody 3A2.2; experiment: Indirect competitive enzyme immunoassay, monoclonal antibody 3A2.2
Excerpt: as §1, §2, §3

[3] = molecular target: monoclonal antibody 1D2.6; experiment: Indirect competitive enzyme immunoassay, monoclonal antibody 1D2.6
Excerpt: as §1, §2, §3

[4] = molecular target: monoclonal antibody 3A5.1; experiment: Indirect competitive enzyme immunoassay, monoclonal antibody 3A5.1
Excerpt: as §1, §2, §3

[5] = test system: monoclonal antibody 3A2.2; experiment: Direct competitive enzyme immunoassay with MAb 3A2.2 and alkaline phosphatase enzyme conjugate; settings: mean of triplicate
Excerpt: The monoclonal antibody 3A2.2 prepared in Example 10 and the enzyme conjugate prepared in Example 12 are used to establish a direct competitive enzyme immunoassay method for the determination of the concentration of imazapyr in samples. A constant amount of the monoclonal antibody 3A2.2 is adsorbed onto polystyrene plate wells through an affinity purified goat anti-mouse immunoglobulin which is previously adsorbed onto the polystyrene plate wells. The wells are washed with buffer (PBS, containing 0.01M NaH2PO4—Na2HPO4 pH 7.6 with 0.05% TWEEN® 20 (a polyoxyethylene sorbitan monolaurate surfactant of Atlas Chemical Industries and 0.02% NaN3) and blocked with a 0.05% gelatin solution prepared in PBS. Standard solutions having concentrations of imazapyr from 0 to 5,000 ng/mL are added to the blocked wells followed by the addition of the aforementioned enzyme conjugate.
After several minutes, the wells are washed and the color is developed by adding BRL alkaline phosphatase substrate amplification kit (commercially available from GIBCO BRL Life Technologies Inc., […], Md.). After several minutes, readings are taken for each well at 490 nm using a microwell reader.
A standard curve plot having the log of imazapyr concentration on the x-axis and the optical density reading at 490 nm (OD 490) on the Y-axis is used to determine unknown concentrations of imazapyr present in soil, water or plant samples from their OD 490 values.
The OD 490 readings for 6 imazapyr standard solutions and a solvent blank are obtained from a direct enzyme immunoassay experiment run in triplicate. The standard curve obtained by plotting the mean OD 490 reading versus the logarithm of the standard imazapyr concentration is used to determine unknown imazapyr concentrations from about 0.5 ng/mL to 500 ng/mL.

[6] = molecular target: monoclonal antibody 2C6.5; experiment: Indirect competitive enzyme immunoassay, monoclonal antibody 2C6.5
Excerpt: as §1, §2, §3

Compound | I50 (half-maximal inhibition) [1] | I50 (half-maximal inhibition) ([2]; MAb 3A2.2, coating antigen G) | I50 (half-maximal inhibition) ([2]; MAb 3A2.2, coating antigen I) | I50 (half-maximal inhibition) ([3]; MAb 1D2.6, coating antigen G) | I50 (half-maximal inhibition) ([3]; MAb 1D2.6, coating antigen I) | I50 (half-maximal inhibition) ([4]; MAb 3A5.1, coating antigen G) | I50 (half-maximal inhibition) ([4]; MAb 3A5.1, coating antigen I) | OD 490 Reading ([5]; imazapyr 0.05 ng/mL) | OD 490 Reading ([5]; imazapyr 0.50 ng/mL) | OD 490 Reading ([5]; imazapyr 5.0 ng/mL) | OD 490 Reading ([5]; imazapyr 50 ng/mL) | OD 490 Reading ([5]; imazapyr 500 ng/mL) | OD 490 Reading ([5]; imazapyr 5,000 ng/mL) | I50 (half-maximal inhibition) ([6]; MAb 2C6.5, coating antigen G) | I50 (half-maximal inhibition) ([6]; MAb 2C6.5, coating antigen I) | affinity compared to the other imidazolinone compounds ([1]; MAb 1A5.5) | affinity compared to the other imidazolinone compounds ([3]; MAb 1D2.6)
mixture of methyl 6-(4-isopropyl-4-methyl-5-oxo-2-imidazolin-2-yl)-m-toluate and methyl 2-(4-isopropyl-4-methyl-5-oxo-2-imidazolin-2-yl)-p-toluate [Imazamethabenz-methyl] | 500 ppb (ng/mL) | 322 ppb (ng/mL) | 356 ppb (ng/mL) | >10,000 ppb (ng/mL) | 105 ppb (ng/mL) | 400 ppb (ng/mL) | 90 ppb (ng/mL) |  |  |  |  |  |  |  |  |  | 
CC(C)C1(C)N=C(c2nc3ccccc3cc2C(=O)O)NC1=O (stereo not drawn) [Imazaquin, 2-(4-isopropyl-4-methyl-5-oxo-2-imidazolin-2-yl)-3-quinolinecarboxylic acid] | >1,000 ppb (ng/mL) | 5 ppb (ng/mL) | 3 ppb (ng/mL) | >10,000 ppb (ng/mL) | 2,000 ppb (ng/mL) |  | 800 ppb (ng/mL) |  |  |  |  |  |  |  |  |  | 
CC(C)C1(C)N=C(c2ncccc2C(=O)O)NC1=O (stereo not drawn) [Imazapyr, 2-(4-isopropyl-4-methyl-5-oxo-2-imidazolin-2-yl)nicotinic acid] | 500 ppb (ng/mL) | 290 ppb (ng/mL) | 331 ppb (ng/mL) | >10,000 ppb (ng/mL) | >1,000 ppb (ng/mL) |  | >5,000 ppb (ng/mL) | 2.671 | 2.507 | 1.893 | 0.801 | 0.474 | 0.446 |  |  |  | 
Cc1cnc(C2=NC(C)(C(C)C)C(=O)N2)c(C(=O)O)c1 (stereo not drawn) [Imazamethapyr, 2-(4-isopropyl-4-methyl-5-oxo-2-imidazolin-2-yl)-5-methylnicotinic acid] | 100 ppb (ng/mL) | 31 ppb (ng/mL) | 27 ppb (ng/mL) | >10,000 ppb (ng/mL) | 250 ppb (ng/mL) | >1,000 ppb (ng/mL) | 340 ppb (ng/mL) |  |  |  |  |  |  | 171 ppb (ng/mL) | 204 ppb (ng/mL) |  | 
CCc1cnc(C2=NC(C)(C(C)C)C(=O)N2)c(C(=O)O)c1 (stereo not drawn) [Imazethapyr, 5-ethyl-2-(4-isopropyl-4-methyl-5-oxo-2-imidazolin-2-yl)nicotinic acid] | 60 ppb (ng/mL) | 34 ppb (ng/mL) | 21 ppb (ng/mL) | >10,000 ppb (ng/mL) | 20 ppb (ng/mL) | >1,000 ppb (ng/mL) | 220 ppb (ng/mL) |  |  |  |  |  |  | 13 ppb (ng/mL) | 15 ppb (ng/mL) | greater affinity | greater affinity

Source: US6407217B1, “Imidazolinone haptens and antigens and enzyme conjugates prepared therefrom” (American Cyanamid Company, priority 1994, dated 2002)
